Source: patent publication US20190302114A1, “METHOD FOR DETECTING THE PRESENCE OF MYC[…] IN SAMPLE USING I[…] PHO[…]” (KEI INTERNATIONAL LIMITED, priority 2016, published 2019)

What was measured:
Assay type in all cases: binding
[1] = system: antibodies against mycobacterial material in human serum; test: ELISA with antigen immobilised on ELISA plates, rabbit anti-human IgM HRP as secondary antibody; details: for tuberculosis specific binding of antibodies to the immobilised antigen: overall conclusion from TB patient versus healthy samples; for background ELISA signal (absorbance at 450 nm) in healthy persons: serum of healthy persons, 1:20, 'lower' is relative to immobilised mycolic acid
[2] = system: antibodies against mycobacterial material in human serum; test: ELISA with diacyl glycolipid antigen of formula (XIII) immobilised via the terminal thio group
[3] = system: antibodies against mycobacterial material in human serum; test: ELISA with antigen immobilised on ELISA plates, rabbit anti-human IgG HRP as secondary antibody
[4] = serum of smear positive TB patients 1-9 (+)

2-palmitoyl-3-hydroxyphthioceranoyl-2′-sulfate-α-α′-D-trehalose [Ac2SGL]
tuberculosis specific binding of antibodies to the immobilised antigen [1]: very high tuberculosis specific binding
background ELISA signal (absorbance at 450 nm) in healthy persons [1]: markedly lower
absorbance signal of samples from smear negative patients versus healthy persons ([1]; serum of smear negative TB patients 11-18 (−)): significantly higher than the signal of the healthy persons
absorbance signal of samples from smear positive patients versus healthy persons [1, 4]: higher than the signal of the healthy persons

C/C(=C\C[n+]1cnc2c(ncn2[C@@H]2O[C@H](CO)C(O)[C@@H]2O)c1N)CC[C@@]1(C)[C@@H]2CCCC(C)(C)C2=CC[C@@H]1C (stereo partly shown) [1-tuberculosinyladenosine]
tuberculosis specific binding of antibodies to the immobilised antigen [1]: very high tuberculosis specific binding
background ELISA signal (absorbance at 450 nm) in healthy persons [1]: markedly lower

CCCCCCCCCCCCCCCCCC[C@H](C)C[C@H](C)[C@@H](O)[C@H](C)C(=O)O[C@@H]1C(OC(=O)CCCCCCCCCCCCCCCS)[C@@H](O[C@H]2OC(CO)[C@@H](O)C(O)[C@H]2O)OC(CO)[C@H]1O (stereo partly shown) [formula (XIII)]
background ELISA signal in healthy persons ([2]; healthy persons (n=4)): markedly lower
tuberculosis specific binding of antibodies to the immobilised antigen ([2]; overall conclusion, most significant in smear negative samples): very high tuberculosis specific binding
absorbance signal of samples from smear negative patients versus healthy persons ([2]; smear negative patients (n=32), very low standard deviation): significantly higher than the signal of the healthy persons
absorbance signal of samples from smear positive patients versus healthy persons ([2]; smear positive patients (n=9), rather high standard deviation): higher than the signal of the healthy persons

CCCCCCCC(C)CCCC(C)CCCC(C)CCCC(C)CCCC(C)CCCOP(=O)(O)O[C@@H]1O[C@H](CO)[C@@H](O)[C@H](O)[C@@H]1O (stereo partly drawn) [β-mannosyl phosphomycoketide]
tuberculosis specific binding of antibodies to the immobilised antigen ([3]; overall conclusion, in particular smear positive samples): very high tuberculosis specific binding
background ELISA signal (absorbance at 450 nm) in healthy persons ([3]; serum of healthy persons, 1:20, 'lower' is relative to immobilised mycolic acid): markedly lower
absorbance signal of samples from smear positive patients versus healthy persons [3, 4]: significantly higher than the signal obtained in the healthy persons
